Test results taken from patent publication US6504005B1, “Long-acting drugs and pharmaceutical compositions comprising them” (Yeda Research and Development Co. Ltd., priority 1996, dated 2003).
Values joined by “and” are separate entries in the source; they are usually repeats but may differ in a detail not shown here. Equal values may be shown once. Read-outs that look alike come from different tables or passages of the source.

How the values were obtained:
[1] = test system: E. coli; assay type: cell-based; conditions: for IC50: read-out: Concentration inhibiting 50% of bacterial growth; for Antimicrobial potency (%): relative to PMXB control
Protocol: At the indicated time points aliquots were withdrawn and analyzed for their potencies to arrest growth of E. coli, and bacterial growth was then evaluated by measuring turbidity at 700 nm.

[2] = test system: hGH receptor; test: Displacement of iodinated hGH (receptor binding assay)
Protocol: Incubation of Fmoc-hGH at pH 8.5 (37° C.) for about 6 days or at pH 10.5 (37° C.) for four days yielded fully active, native hGH, as judged by HPLC analysis and by receptor binding assays.

[3] = Conversion of Fmoc-hGH to native hGH upon incubation (analytical HPLC); assay type: physicochemical; conditions: pH 8.5, 37° C.
Protocol: Conversion of Fmoc-hGH to native hGH was evaluated by the increase in peak area corresponding to native hGH.

[4] = assay type: physicochemical
Protocol: (i.e. at physiological pH and body temperature). At the indicated time points aliquots were withdrawn for determining the biological potency relative to native insulin. Biological activities were evaluated by Insulin receptor tyrosine kinase activation (a cell free assay as described in Biological Procedures above, section (iv)) and by stimulation of lipogenesis in intact rat adipocytes as described in Biological Procedures, […].

[5] = Solubility and appearance in aqueous buffer (pH 7.4)
[6] = target: insulin receptor tyrosine kinase (Rattus norvegicus, UniProt P15127); test: Insulin receptor tyrosine kinase activity, [poly(Glu4Tyr)] phosphorylating assay (cell-free); conditions: for Biological potency following incubation (2 days, 37° C., pH 8.5): after 2 days; for Biological potency (%): of native insulin potency, before incubation, [poly(Glu4Tyr)] phosphorylating assay
Protocol: Briefly, the liver was homogenized in the presence of proteinase inhibitors, solubilized with 1% Triton X-100, and centrifuged. The supernatant was allowed to pass through a wheat-germ agglutinin (WGA)-agarose column (Sigma). Adsorbed insulin receptor portion was eluted with 0.3M N-acetyl-D-glucose amine in 50 mM HEPES buffer, pH 7.4, containing 0.1% Triton X-100, 10% glycerol, and 0.15M NaCl.
(iv) Receptor Tyrosine Kinase Activity Measurement
In this assay insulin activates its own receptor to phosphorylate a random copolymer containing L-glutamic acid and L-tyrosine at 4:1 molar ratio [Poly(Glu4Tyr)]SEQ ID NO:1. The standard enzyme assay mixture (final volume 60 μl in 50 mM Hepes, pH 7.4-0.1% Triton X-100) contained WGA purified insulin receptor (5μg protein), 20 mM MgCl2, 2 mM MnCl2, 100 μM ATP and varying concentrations (from 1 ng/ml to 10 mg/ml) of insulin or insulin derivative. Following a 30 min preincubation at 22° C., the reaction was initiated by adding Poly(Glu4Tyr) SEQ ID NO:1 (final concentration 0.7 mg/ml), it proceeded for 20 min at 22° C. and was terminated by adding EDTA (20 mM). Phosphotyrosine content in PolyGlu4Tyr was quantitated by a radio-immunoassay procedure using specific monoclonal antibodies to phosphotyrosine (final dilution 1: 100,000) and ^125I-BSA-phosphotyrosine conjugate.

[7] = test system: STZ-diabetic rats; test: Single subcutaneous administration to STZ-diabetic rats (blood glucose, daily weight gain)
Protocol: Diabetes was induced by a single intravenous injection of a freshly prepared solution of streptozotocin (55 mg/kg body weight) in 0.1M citrate buffer (pH 4.5) according to Meyerovitch et al., 1987.
Blood glucose levels and daily weight gains were followed over a period of seven days.
Group C (n=5) received the vehicle only (2.0 ml of 20% DMSO). Blood glucose levels were determined daily.

[8] = test system: intact rat adipocytes; assay type: cell-based; conditions: for Activity following incubation at pH 8.5, 37° C. (%), 9 hrs: 9 hrs at pH 8.5, 37° C.; for Activity following incubation at pH 8.5, 37° C. (%), 20 hrs: 20 hrs at pH 8.5, 37° C.; for Activity following incubation at pH 8.5, 37° C. (%), 45 hrs: 45 hrs at pH 8.5, 37° C.
Protocol: (iii) Lipogenesis (Incorporation of Labeled Glucose into the Lipids of Intact Adipocytes) Rat adipocytes were prepared essentially by the method of Rodbell, 1964. The fat pads of male Wistar rats were cut into small pieces with scissors and suspended in 3 ml of KRB buffer containing NaCl, 110 mM; NaHCO3, 25 mM; Kcl, 5 mM; […] CaCl2, 1.3 mM; […] Five milliliters of buffer was then added, and the cells were passed through a mesh screen. The cells were then allowed to stand for several minutes in a 15 ml plastic test tube at room temperature, floating, and the buffer underneath was removed. This procedure (suspension, floating, and removal of buffer underneath) was repeated three times. […] Lipogenesis was terminated by adding toluene-based scintillation fluid (1.0 ml per vial) and the radioactivity in extracted lipids was counted (Moody et al., 1974).

[9] = test system: normal rats; test: Single intraperitoneal administration to normal rats, blood glucose levels; assay type: in vivo; conditions: single i.p. injection, 3 mg/rat
Protocol: This assay reflects the post-subcutaneous long-acting feature of insulin (or insulin derivatives) within the circulation. Normal rats received a single intraperitoneal injection of native insulin, NPH-insulin and (Fmoc)2-insulin (3 mg/rat), and their blood glucose levels were monitored over a period of three days.
Blood glucose levels were followed for two days.

[10] = not given; remark: listed apart in the source
[11] = cited from earlier work
[12] = test system: Staphylococcus aureus; conditions: relative to cephalexin control
Protocol: At the indicated time points, aliquots were withdrawn and analyzed for their potency to arrest growth of Staphylococcus aureus. Bacterial growth was then evaluated by increased turbidity measured spectroscopically at 700 nm.

[13] = test system: chymotrypsin and trypsin; conditions: pH 7.4
Protocol: Chymotrypsin and trypsin (0.5% w/w, of each) was then added. At the indicated time points aliquots were withdrawn and subjected to analytical HPLC procedure.

Sequence of insulin receptor tyrosine kinase (P15127 27-759 limits assumed): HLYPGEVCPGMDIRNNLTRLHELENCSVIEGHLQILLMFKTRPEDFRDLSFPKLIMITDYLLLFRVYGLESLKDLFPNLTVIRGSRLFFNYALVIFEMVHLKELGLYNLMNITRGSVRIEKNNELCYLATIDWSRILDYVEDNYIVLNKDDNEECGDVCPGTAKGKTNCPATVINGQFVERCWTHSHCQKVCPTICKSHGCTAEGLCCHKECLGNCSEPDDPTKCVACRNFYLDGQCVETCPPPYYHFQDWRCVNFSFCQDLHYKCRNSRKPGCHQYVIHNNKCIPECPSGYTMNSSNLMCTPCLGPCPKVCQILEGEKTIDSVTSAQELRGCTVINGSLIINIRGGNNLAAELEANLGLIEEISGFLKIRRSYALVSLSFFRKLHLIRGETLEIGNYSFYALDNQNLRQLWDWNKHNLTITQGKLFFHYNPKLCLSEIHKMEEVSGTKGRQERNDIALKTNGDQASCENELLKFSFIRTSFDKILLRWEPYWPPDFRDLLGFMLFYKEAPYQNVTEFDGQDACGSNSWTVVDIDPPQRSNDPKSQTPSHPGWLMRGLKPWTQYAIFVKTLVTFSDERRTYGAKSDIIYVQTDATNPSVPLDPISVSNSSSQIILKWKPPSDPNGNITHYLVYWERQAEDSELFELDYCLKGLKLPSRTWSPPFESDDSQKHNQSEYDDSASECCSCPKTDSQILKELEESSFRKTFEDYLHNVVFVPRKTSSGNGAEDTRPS
Sequence of insulin receptor tyrosine kinase (P15127 764-1383 partner limits assumed): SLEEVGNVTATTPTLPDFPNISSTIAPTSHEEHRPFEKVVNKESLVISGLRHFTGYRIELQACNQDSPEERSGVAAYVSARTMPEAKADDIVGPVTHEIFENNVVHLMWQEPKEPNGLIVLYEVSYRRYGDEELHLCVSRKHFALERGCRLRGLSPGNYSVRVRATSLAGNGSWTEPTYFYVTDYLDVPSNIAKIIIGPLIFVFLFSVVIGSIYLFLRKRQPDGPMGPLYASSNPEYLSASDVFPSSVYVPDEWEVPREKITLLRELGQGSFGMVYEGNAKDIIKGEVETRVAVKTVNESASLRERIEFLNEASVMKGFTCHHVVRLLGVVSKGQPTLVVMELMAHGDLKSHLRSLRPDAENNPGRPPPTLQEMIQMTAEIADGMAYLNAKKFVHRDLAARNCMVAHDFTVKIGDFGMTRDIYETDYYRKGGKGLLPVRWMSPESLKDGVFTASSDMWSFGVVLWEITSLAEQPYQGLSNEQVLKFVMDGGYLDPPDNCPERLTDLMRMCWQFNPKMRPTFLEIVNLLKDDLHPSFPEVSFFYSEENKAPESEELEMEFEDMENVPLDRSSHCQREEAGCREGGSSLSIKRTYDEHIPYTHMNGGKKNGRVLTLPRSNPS

Polymyxin-B [native PMXB, reference compound]
IC50 ([1]; 3 d, 37° C., pH 7.4): 55 nM | Antimicrobial potency (%) ([1]; 3 d, 37° C., pH 7.4): 100% | IC50 ([1]; 3 d, 37° C., pH 8.5): 100 nM | Antimicrobial potency (%) ([1]; 3 d, 37° C., pH 8.5): 100% | IC50 ([1]; 6 d, 37° C., pH 7.4): 228 nM | Antimicrobial potency (%) ([1]; 6 d, 37° C., pH 7.4): 100% | IC50 ([1]; 6 d, 37° C., pH 8.5): 200 nM | Antimicrobial potency (%) ([1]; 6 d, 37° C., pH 8.5): 100% | IC50 ([1]; no treatment): 50 nM | Antimicrobial potency (%) ([1]; no treatment): 100%

di-9-(fluorenylmethoxycarbonyl)polymyxin B [(Fmoc)2-PMBX]
IC50 ([1]; 3 d, 37° C., pH 7.4): 227 nM and 350 nM | IC50 ([1]; 3 d, 37° C., pH 8.5): 125 nM | Antimicrobial potency (%) ([1]; 3 d, 37° C., pH 8.5): 80% | IC50 ([1]; 6 d, 37° C., pH 8.5): 200 nM | Antimicrobial potency (%) ([1]; 6 d, 37° C., pH 8.5): 100% | t½ of hydrolysis back to active PMXB, pH 7.4 ([1]; buffer, pH 7.4): ~1 days | t½ of hydrolysis back to active PMXB, pH 8.5 ([1]; buffer, pH 8.5): ~3 days | IC50 ([1]; no treatment): 5000 nM | Antimicrobial potency (%) ([1]; no treatment): ~1%

Fmoc-hGH: human growth hormone modified with Fmoc-OSu
Ability to displace iodinated hormone (%) ([2]; after 1 day, pH 10.5, 37° C.): 25% | Ability to displace iodinated hormone (%) ([2]; after 4 days, pH 10.5, 37° C.): 100% | Ability to displace iodinated hormone (%) ([2]; no treatment): 15% | Incubation time yielding fully active, native hGH, pH 10.5 ([2]; pH 10.5, 37° C.): four days | Conversion to hGH (%) ([3]; 1 day): 23% | Conversion to hGH (%) ([3]; 2 days): 62% | Conversion to hGH (%) ([3]; 6 days): 100% | Incubation time yielding fully active, native hGH, pH 8.5 [3]: about 6 days

Lys^B29-N-(Fmoc)1-insulin
t½ of activation (half maximal activation) ([4]; buffer, pH 7.4): 120 h | Appearance in aqueous buffer (pH 7.4) [5]: nearly clear | Solubility in aqueous buffer (pH 7.4, mg/ml): ˜3 mg/ml | Biological potency following incubation (2 days, 37° C., pH 8.5) [6]: 94 | Biological potency (%) [6]: 78 ± 4%

Phe^B1-N-(Fmoc)1-insulin
Appearance in aqueous buffer (pH 7.4) [5]: nearly clear | Solubility in aqueous buffer (pH 7.4, mg/ml): ˜3 mg/ml | Biological potency (%) [6]: 76 ± 4%

Phe^B1, Lys^B29-N-(Fmoc)2-insulin
Lag period of activation ([4]; pH 7.4, 37° C.): not seen | Start of conversion to the native hormone after incubation ([4]; pH 7.4, 37° C.): starts shortly (within hours) after incubation | Appearance in aqueous buffer (pH 7.4) [5]: cloudy | Period of normoglycemia ([7]; STZ rats, single s.c. 3 mg/rat): 4 days | Daily weight gain gram/rat (over the first three days) ([7]; STZ rats, single s.c. 3 mg/rat, first three days): 11.5 ± 1.3 gram/rat | Effectiveness in lowering blood glucose levels ([7]; STZ rats, single s.c. administration): as effective as the commercially available (insoluble) long-acting preparation | Solubility in aqueous buffer (pH 7.4, mg/ml): ˜2 mg/ml | Activity following incubation at pH 8.5, 37° C. (%), 9 hrs [8]: 10% | Activity following incubation at pH 8.5, 37° C. (%), 20 hrs [8]: 20% | Activity following incubation at pH 8.5, 37° C. (%), 45 hrs [8]: 98% | Period of hypoglycemia / reduced blood glucose [9]: about 48 hours | Recovery from hypoglycemia, t½ [9]: 26 h | Biological potency (%) ([6]; Lys^B29-N-(Fmoc)2 insulin): 9% | Biological potency (%) ([6]; listed as N-(Fmoc)2-insulin Phe^B1, Lys^B29): 9 ± 2%

(Sulfmoc)2-insulin: insulin carrying two (2-sulfo)Fmoc groups on amino groups, water soluble
Time to full reversion / hydrolysis to the native hormone, pH 7.4 ([10]; 37° C., pH 7.4): 10 days | t½ of reversion, pH 7.4 ([10]; buffer, pH 7.4): 6 days | t½ of reversion, pH 8.5 ([10]; buffer, pH 8.5): 12-15 hours | Increase in rate of hydrolysis versus Fmoc moiety ([10]; sulfonic acid group at position 2): 2-3 fold | Biologically active (%) ([8]; before incubation, assay not given): 0.5% | t½ of return to fully-active native insulin (increase in biological potency) ([8]; pH 8.5): 4-6 hours | Period of hypoglycemia / reduced blood glucose [9]: 24 h | Recovery from hypoglycemia, t½ [9]: 14 h

hGH: native human growth hormone (Biotechnology General)
Ability to displace iodinated hormone (%) ([2]; no treatment): 100% | Stability under the conditions applied to Fmoc-hGH ([2]; pH 10.5, 37° C., 4 days): ^(1)Displacement of iodinated hGH was carried out according to Gertler et al., 1984. Native hGH was fully stable under the conditions applied to Fmoc-hGH (pH 10.5, 37° C., 4 days).

Insulin lispro: human insulin analog with the sequence at B28 and B29 reversed
Potency versus human insulin ([11]; in vivo): equipotent to human insulin | Absorption from subcutaneous injection sites ([11]; versus human insulin): absorbed more quickly

Gly^A1, Phe^B1-N-(Fmoc)2-insulin
Appearance in aqueous buffer (pH 7.4) [5]: cloudy | Solubility in aqueous buffer (pH 7.4, mg/ml): ˜2 mg/ml | Activity following incubation at pH 8.5, 37° C. (%), 9 hrs [8]: 18% | Activity following incubation at pH 8.5, 37° C. (%), 20 hrs [8]: 40% | Activity following incubation at pH 8.5, 37° C. (%), 45 hrs [8]: 100% | Biological potency following incubation (2 days, 37° C., pH 8.5) [6]: 97 | Biological potency (%) [6]: 3 ± 1%

CC1=C(C(=O)O)N2C(=O)[C@@H](NC(=O)[C@H](N)c3ccccc3)[C@H]2SC1 [native cephalexin, 7-(D-α-aminophenylacetamido)desacetoxycephalosporanic acid, reference compound]
Antimicrobial potency (%) ([12]; after 1 day at pH 7.4, 37° C.): 100% | Antimicrobial potency (%) ([12]; after 3 days at pH 7.4, 37° C.): 100% | Antimicrobial potency (%) ([12]; after 6 days at pH 7.4, 37° C.): 100% | Antimicrobial potency (%) ([12]; no incubation): 100%

Gly^A1, Lys^B29-N-(Fmoc)2-insulin
Appearance in aqueous buffer (pH 7.4) [5]: cloudy | Solubility in aqueous buffer (pH 7.4, mg/ml): ˜2 mg/ml | Activity following incubation at pH 8.5, 37° C. (%), 9 hrs [8]: 10% | Activity following incubation at pH 8.5, 37° C. (%), 20 hrs [8]: 20% | Activity following incubation at pH 8.5, 37° C. (%), 45 hrs [8]: 97% | Biological potency following incubation (2 days, 37° C., pH 8.5) [6]: 93 | Biological potency (%) [6]: 2 ± 1%

Gly^A1-N-(Fmoc)1-insulin [Gly^A1-N-Fmoc-insulin]
Appearance in aqueous buffer (pH 7.4) [5]: nearly clear | Solubility in aqueous buffer (pH 7.4, mg/ml): ˜3 mg/ml | Activity following incubation at pH 8.5, 37° C. (%), 9 hrs [8]: 50% | Activity following incubation at pH 8.5, 37° C. (%), 20 hrs [8]: 100% | Biological potency (%) [6]: 40 ± 2%

Gly^A1, Phe^B1, Lys^B29-N-(Fmoc)3-insulin
Lag period of activation ([4]; pH 7.4, 37° C.): six day lag period | Appearance in aqueous buffer (pH 7.4) [5]: very cloudy | Resistance to proteolysis [13]: highly resistant to proteolysis | Delayed onset of antidiabetic action ([7]; STZ rats, single s.c. 1 mg): approximately two days | Duration of antidiabetic action ([7]; STZ rats, single s.c. 1 mg): four days | Daily weight gain ([7]; STZ rats, single s.c. 1 mg, followed seven days): 1.43±0.14 g/rat/day | Circulating glucose level lower than in native insulin group ([7]; single s.c. 1 mg, day two up to day six): 90 to 110 mg/dL | Solubility in aqueous buffer (pH 7.4, mg/ml): ˜0.2 mg/ml | Biological potency (%) ([6]; listed as N-(Fmoc)3-insulin Gly^A1, Lys^B29, Phe^B1): <1% | Biological potency (%) ([6]; listed as tri-N-Fmoc-insulin): < 1%
